Experimental data: ChEMBL document CHEMBL3137667, “[Drug-induced liver injury; fourteenth updated edition of the bibliographic database of liver injuries and related drugs]” (Gastroenterol Clin Biol, 2004)

Legend:
[1] = human
[2] = Highest frequency of moderate liver toxicity observed during clinical trials, expressed as a percentage. [column '% BIOL' in source]; details: human
[3] = human; remark: listed apart in the source
[4] = human; remark: listed apart in the source
[5] = Highest frequency of acute liver toxicity observed during clinical trials, expressed as a percentage. [column '% AIGUE' in source]; details: human
[6] = human, serum, 4383 h
[7] = human, serum
[8] = Presence of at least one case with successful reintroduction. [column 'REINT' in source]; details: human
[9] = human; remark: listed apart in the source
[10] = human; remark: listed apart in the source
[11] = human, serum; remark: listed apart in the source
[12] = Times to onset, minimal and maximal, observed in the indexed observations. [column 'DELAI' in source]; details: human
[13] = human; remark: listed apart in the source
[14] = human; remark: listed apart in the source
[15] = Comments (NB not yet translated). [column 'COMMENTAIRES' in source]; details: human
[16] = human; remark: listed apart in the source
[17] = human; remark: listed apart in the source
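Wherever Hepatotoxicity (association with vascular disease) is given: count of indexed literature references reporting vascular liver injury in humans, e.g. peliosis hepatitis, hepatic veno-occlusive disease or Budd-Chiari syndrome.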
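Wherever Hepatotoxicity (benign tumour) is given: value is a count of indexed literature references citing a benign tumour confirmed by histopathology.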
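Wherever Hepatotoxicity (choleostasis) is given: human cholestatic liver injury, shown by histopathology or by peak ALT or AST elevation over alkaline phosphatase ratio below 2, value counts indexed literature reports.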
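Wherever Hepatotoxicity (chronic liver disease) is given: chronic liver injury confirmed by histopathology or persistently raised serum aminotransferase activity beyond 6 months, value given as the count of indexed literature references.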
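Wherever Hepatotoxicity (cirrhosis) is given: value is a count of indexed literature references reporting cirrhosis confirmed by histopathology.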
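Wherever Hepatotoxicity (cytolytic) is given: human cytolytic liver injury, shown by histopathology or by a ratio above 5 of peak ALT or AST elevation to alkaline phosphatase elevation, value counts indexed references.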
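Wherever Hepatotoxicity (granulomatous hepatitis) is given: value is a count of indexed literature references reporting granulomatous liver disease confirmed by histopathology.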
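Wherever Hepatotoxicity (malignant tumour) is given: malignant tumour confirmed by histopathology, value gives the count of indexed literature references reporting it.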
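Wherever Hepatotoxicity (severe hepatitis) is given: human clinical data: severe hepatitis, meaning potentially life-threatening liver failure or clinically observed cases, the value counts how many indexed literature references report it.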
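Wherever Hepatotoxicity (steatosis) is given: steatosis confirmed by histopathology, value is the count of indexed references.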

Row | Structure (SMILES) | Hepatotoxicity (cytolytic) [1] | Hepatotoxicity (moderate) [2] [%] | Hepatotoxicity (steatosis) [3] | Hepatotoxicity (severe hepatitis) [4] | Hepatotoxicity (acute) [5] [%] | Hepatotoxicity (chronic liver disease) [6] | Hepatotoxicity (acute) [7] | Hepatotoxicity (successful reintroduction) [8] | Hepatotoxicity (choleostasis) [9] | Hepatotoxicity (benign tumour) [10] | Hepatotoxicity (moderate) [11] | Hepatotoxicity (time to onset) [12] | Hepatotoxicity (malignant tumour) [13] | Hepatotoxicity (cirrhosis) [14] | Hepatotoxicity (comment) [15] | Hepatotoxicity (association with vascular disease) [16] | Hepatotoxicity (granulomatous hepatitis) [17] | Hepatotoxicity (moderate) ([2]; Liver) [%] | Hepatotoxicity (severe hepatitis) ([4]; Liver) | Hepatotoxicity (acute) ([5]; Liver) [%] | also measured
1 | OCCN1CCN(CCCN2c3ccccc3Sc3ccc(C(F)(F)F)cc32)CC1 [FLUPHENAZINE] | 1 | 0 | 0 | 0 | 1 | 0 | 5 | yes | 4 | 0 | 2 | 2 weeks | 0 | 0 | RC/HALOPERIDOL | 0 | 0 | – | – | – | –
2 | CC(CCc1ccccc1)NCC(O)c1ccc(O)c(C(N)=O)c1 (stereo not drawn) [LABETALOL] | 6 | 20.5 | 0 | 4 | 0.9 | 0 | 6 | yes | 0 | 0 | 5 | 3 weeks - 6 months | 0 | 0 | AC_ANTI-N | 0 | 0 | – | – | – | –
3 | Nc1ccn([C@@H]2CS[C@H](CO)O2)c(=O)n1 [LAMIVUDINE] | 26 | – | 13 | – | – | 1 | 30 | yes | 1 | 0 | 15 | 10 days - 3 years | 0 | 0 | REACTIVATION_HVB REACTIVATION_HVC | 0 | 0 | 44 | 15 | 12.5 | –
4 | c1ccc([C@H]2CN3CCSC3=N2)cc1 [LEVAMISOLE] | – | – | 6 | – | – | 0 | 0 | yes | – | 0 | 11 | 1 month - 1 year | 0 | 0 | I/FLUOROURACIL | 0 | – | 61.2 | 0 | 0 | Hepatotoxicity (cytolytic) ([1]; Liver): 0; Hepatotoxicity (choleostasis) ([9]; Liver): 0; Hepatotoxicity (granulomatous hepatitis) ([17]; Liver): 0
